Measured values taken from PMC12431657, “Discovery and mechanistic insights of dibenzoylmethane as a broad spectrum inhibitor of coronavirus” (PLOS Pathogens, 2025).
Values joined by “and” are separate entries in the source; they are usually repeats but may differ in a detail not shown here. Equal entries are not always repeated. Structures can show the parent of a compound that is named as a salt. Where two headings read alike, the source gives them in different places.

Columns and labels:
[1] = system: HCoV-OC43; experiment: microbe, parasite or virus in culture; assay type: cell-based; conditions: for inhibition at 10 µM: Betacoronavirus 1, OC43, 24 h, read-out: OC43 Inhibition rate
[2] = system: Huh-7 cells; experiment: Cytotoxicity assay (CCK-8), Huh-7 cells
[3] = system: HCoV-OC43; experiment: Time-of-addition assay; assay type: cell-based
Experimental: To obtain further insight into the stage at which DBM inhibits the replication of HCoV-OC43 and other HCoVs, RD cells were incubated with compounds, including DBM, remdesivir (RDV), and chloroquine (CQ), at different stages of viral infection. Viral RNA from the supernatant was extracted and quantitatively analysed via qRT-PCR. […] For the viral binding assay, cells were cultured in the presence or absence of DBM at different concentrations for 1 hour before being infected with HCoV-OC43 at an MOI of 50, and then were placed on ice for 2 hours for the viral particles to bind to the membrane of the host cells, followed by washing with PBS. […] In addition to binding to receptors from host cells, the spike proteins of HCoV-OC43 could also trigger membrane fusion when HCoV-OC43 spike plasmid-transfected 293T cells were seeded together with RD cells as target cells, and the addition of DBM had no effect on this process (S5C Fig). To examine whether DBM inhibits viral internalisation, cells were inoculated with HCoV-OC43 for 1 hour on ice before being treated with either DBM or DMSO, and CQ was included to prevent endosomal acidification. Subsequently, HCoV-OC43 nucleocapsid proteins were immunostained with CoraLite Plus 488 to assess viral internalisation via confocal microscopy. […] To determine whether DBM influences viral release, we quantified viral RNA both intracellularly and in the supernatant.
To evaluate the effects of DBM on the life cycle of HCoV-229E and HCoV-OC43, fresh culture medium containing 0.6 μM DBM, 0.1 μM remdesivir (RDV), or 10 μM chloroquine (CQ) was supplemented with preseeded cells at different time points relative to infection (entry group: 0 to –2 hours; postinfection group: 2–12 hours; and full-time group: 0 to –12 hours). DMSO served as the control. At 24 hours postinfection, the number of intracellular virus RNA copies was quantified by qRT-PCR as previously described.

[4] = system: HCoV-229E; experiment: Antiviral activity in vitro, viral RNA copies by qRT-PCR, HCoV-229E in Huh-7 cells; assay type: cell-based; design: EC50 (229E, Huh-7): dose-response value per replicate: scale not given here
[5] = system: HCoV-229E; experiment: Antiviral activity in vitro, qRT-PCR, HCoV-229E in MRC-5 cells; assay type: cell-based
[6] = system: HCoV-OC43; experiment: Antiviral activity in vitro, qRT-PCR, HCoV-OC43 in RD cells; assay type: cell-based; design: EC50 (OC43, RD): dose-response value per replicate: concentration or dose not given beside the values
[7] = system: HCoV-OC43; experiment: Antiviral activity in vitro, qRT-PCR, HCoV-OC43 in Huh-7 cells; assay type: cell-based; conditions: Betacoronavirus 1, OC43, Huh-7, 24 h, read-out: EC50 HCoV-OC43 (Huh-7)
[8] = system: HCoV-OC43; conditions: Ingenol 3,20-dibenzoate 10 mpk oral QD; day 2; one value per mouse
[9] = system: HCoV-229E; experiment: HTS luminescent cell viability assay, HCoV-229E infection; assay type: cell-based; conditions: for inhibition at 10 µM: Human coronavirus 229E, 24 h, read-out: 229E Inhibition rate
[10] = system: HCoV-229E; design: species or system Huh-7; HTS, protection from HCoV-229E induced cell death, luminescent cell viability (CellCounting-Lite 2.0), inhibition rate; conditions: 24 h, 10 µM; inhibitor
[11] = system: HCoV-OC43; design: species or system RD; HTS, protection from HCoV-OC43 induced cell death, luminescent cell viability (CellCounting-Lite 2.0), inhibition rate; conditions: 24 h, 10 µM; inhibitor
[12] = system: RD cells; assay type: cell-based
[13] = system: HCoV-OC43; experiment: HCoV-OC43 replication in siRNA-transfected cells; assay type: cell-based; conditions: replicates
[14] = compound 10 μM, 24 h postinfection

CC[C@@]1(O)C(=O)OCc2c1cc1n(c2=O)Cc2cc3c(N)cccc3nc2-1 [9-amino-CPT]
OC43 Inhibition rate [1, 14]: -9.5%

C=C(C)C(CC=C(C)C)Cc1c(O)cc(OC)c2c1O[C@H](c1ccc(O)cc1OC)CC2=O (stereo partly drawn) [(2S)-2’-methoxykurarinone]
selectivity index (SI) ([2]; CC50 versus EC50, HCoV-229E in Huh-7 and HCoV-OC43 in RD cells): below 25

C[S@@+]([O-])CCCCN=C=S [(R)-sulforaphane]
selectivity index (SI) [2]: below 25

CCN(CC)CCCC(C)Nc1ccnc2cc(Cl)ccc12 (stereo not shown) [CQ]
time-of-addition, viral inhibition [3]: 99.3

CC1=C[C@]23C(=O)[C@@H](C=C(COC(=O)c4ccccc4)[C@@H](O)[C@]2(O)[C@H]1OC(=O)c1ccccc1)[C@H]1[C@@H](C[C@H]3C)C1(C)C [Ingenol 3,20-dibenzoate, ingenol 3,20-dibenzoate]
EC50 ([4]; Human coronavirus 229E, Huh-7, 24 h, read-out: EC50 HCoV-229E (Huh-7)): < 80 nM
HCoV-229E, MRC-5: inhibition at the concentration (Fig2B) [5]: 90.2
EC50 ([5]; Human coronavirus 229E, MRC5, 24 h, read-out: EC50 HCoV-229E (MRC-5)): 100 nM
EC50 ([6]; Betacoronavirus 1, OC43, RD, 24 h, read-out: EC50 HCoV-OC43 (RD)): < 80 nM
EC50 [7]: < 80 nM
Body weight changes [8]: DIED

CO[C@@H]1C[C@@H](C[C@H]2CC[C@H](C)[C@H]([C@@H](C)C(=O)O)O2)O[C@]2(O[C@](C)([C@H]3CC[C@@](C)([C@@H]4O[C@@H]([C@H]5O[C@@](O)(CO)[C@H](C)C[C@@H]5C)C[C@@H]4C)O3)C[C@H]2C)[C@@H]1C [Nigericin (sodium salt)]
229E Inhibition rate ([9]; 10 µM): 0.0%
OC43 Inhibition rate ([1]; 10 µM): 8.7%

O=C(O)c1cc(C(=O)O)c2c(n1)C(=O)C(=O)c1cc(C(=O)O)[nH]c1-2 [Pyrroloquinoline quinone (disodium salt)]
229E Inhibition rate [9, 14]: 4.0%
OC43 Inhibition rate [1, 14]: -0.3%

O=C(O)c1cc(C(=O)O)c2c(n1)C(=O)C(=O)c1cc(C(=O)O)[nH]c1-2 [Pyrroloquinoline quinone]
inhibition at 10 µM [9]: 4.2%
inhibition at 10 µM [1]: -0.2%

CC1=C2[C@H]3OC(=O)[C@@H](C)[C@@H]3CC[C@@]2(C)C=CC1=O [Santonin]
229E Inhibition rate [10]: 22.7%
OC43 Inhibition rate [11]: -0.5%

C[C@H]1CC[C@@H]2N(C1)C[C@H]1[C@@H]3C[C@H]4[C@@H](CC(=O)[C@H]5C[C@@H](O)CC[C@@]54C)[C@@H]3CC[C@H]1[C@]2(C)O [Sipeimine]
229E Inhibition rate [10]: 43.3%
OC43 Inhibition rate [11]: -1%

Nc1ncnc2c1ccn2[C@@H]1O[C@H](CO)[C@@H](O)[C@H]1O [Tubercidin]
inhibition at 10 µM [9]: 12.9%
inhibition at 10 µM [1]: 1.9%

O=c1cc(-c2ccc(O)cc2)oc2c([C@@H]3O[C@H](CO)[C@@H](O)[C@H](O)[C@H]3O)c(O)cc(O)c12 [Vitexin]
229E Inhibition rate [10]: 10.4%
OC43 Inhibition rate [11]: 0%

C[C@H]1CC[C@@H]2N(C1)C[C@H]1[C@@H]3C[C@H]4[C@@H](CC(=O)[C@H]5C[C@H](O)CC[C@@]54C)[C@@H]3CC[C@H]1[C@]2(C)O [Yubeinine]
229E Inhibition rate [10]: 8.8%
OC43 Inhibition rate [11]: 0%

C/C=C/c1cc(OC)c(OC)cc1OC [alpha-Asarone]
229E Inhibition rate [10]: 14.4%
OC43 Inhibition rate [11]: 1.2%

C[C@@H]1[C@H](O)[C@@H](C)/C=C/C=C/C=C/C=C/C=C/C=C/C=C/[C@H](O[C@@H]2O[C@H](C)[C@@H](O)[C@H](N)[C@@H]2O)C[C@@H]2O[C@](O)(C[C@@H](O)C[C@@H](O)[C@H](O)CC[C@@H](O)C[C@@H](O)CC(=O)O[C@H]1C)C[C@H](O)[C@H]2C(=O)O [amphotericin B, reference compound]
selectivity index (SI) [2]: below 25

COc1ccc(-c2oc3c(CC=C(C)C)c(O)cc(O)c3c(=O)c2O[C@@H]2O[C@@H](C)[C@H](O)[C@@H](O)[C@H]2O)cc1 [baohuoside I]
selectivity index (SI) [2]: below 25

COC[C@@H]1CCCN1S(=O)(=O)c1ccc2c(c1)C(=O)C(=O)N2 [caspase-3/7 inhibitor I, (S)-(+)-5-[1-(2-methoxymethylpyrrolidinyl)sulfonyl]isatin, reference compound]
suppression of viral replication ([6]; HCoV-OC43, cell line not printed (S6C Fig)): not effective

CN[C@@H](C)[C@H]1[C@H](O)C[C@@]2(C)[C@@H]3CC[C@H]4C(C)(C)[C@@H](NC)CC[C@@]45C[C@@]35CC[C@]12C [cyclovirobuxine D]
EC50 (229E, Huh-7): dose-response value per replicate [4]: 87.1 and 91.6 and 92.1 and 83.4 and 77.4 and 88.7 and 0.1 (10×) and 27 and 13.3
EC50 (OC43, RD): dose-response value per replicate [6]: 99.7 (3×) and 96.3 and 96.5 and 96.2 and 73.1 and 73 (2×) and 5.5 and 61.2 and 59.8 and 79.4 and 78.3 and 79.9 and 42.6 and 41.4 and 42
selectivity index (SI) [2]: below 25

COC(=O)[C@H]1[C@H]2C[C@@H]3c4[nH]c5ccccc5c4CCN3C[C@H]2C[C@@H](OC(=O)c2cc(OC)c(OC)c(OC)c2)[C@@H]1OC [deserpidine, reference compound]
selectivity index (SI) [2]: below 25

CC(=O)OC/C1=C\[C@H]2[C@@H](OC(=O)/C=C/c3ccccc3)[C@@H](C)C[C@]2(OC(C)=O)C(=O)/C(C)=C/[C@@H]2[C@H](CC1)C2(C)C [euphorbia factor L7a]
selectivity index (SI) [2]: below 25

C=C1C(=O)[C@@]23[C@@H]4OC5O[C@@]2(O)[C@@H](O)[C@@H]2C(C)(C)CC[C@@H](O)[C@]52[C@@H]3CC[C@@H]14 [ponicidin]
selectivity index (SI) [2]: below 25

C=C(C)[C@H](CC=C(C)C)Cc1c(O)cc(O)c2c1O[C@H](c1ccc(O)cc1O)CC2=O [sophoraflavanone G]
selectivity index (SI) [2]: below 25

C[C@H]1CC[C@@H]2[C@@H](C)[C@H]3[C@H](C[C@H]4[C@@H]5CC=C6C[C@@H](O[C@@H]7O[C@H](CO)[C@H](O)[C@H](O[C@@H]8O[C@H](CO)[C@@H](O)[C@H](O)[C@H]8O)[C@H]7O[C@@H]7O[C@@H](C)[C@H](O)[C@@H](O)[C@H]7O)CC[C@]6(C)[C@H]5CC[C@]34C)N2C1 [α-Solanine]
229E Inhibition rate [10]: 9.3%
OC43 Inhibition rate [11]: 23.1%

C[C@H]1CCC[C@@H](O)CCC/C=C/c2cc(O)cc(O)c2C(=O)O1 [β-Zearalenol]
229E Inhibition rate [10]: 60.6
OC43 Inhibition rate [11]: 39.8

ALG11-2 (sense GGUGCCUGUGCAAGUUGUUTT; antisense AACAACUUGCACAGGCACCTT; chemistry not given here)
Relative mRNA content of the targeted gene after siRNA knockdown (Fig5D) [12]: 0.16 and 0.22 and 0.13

CASP3-1 (sense CCGACAAGCUUGAAUUUAUTT; antisense AUAAAUUCAAGCUUGUCGGTT; chemistry not given here)
HCoV-OC43 replication in siRNA-transfected cells, inhibition [13]: -3.8 and -7.6 and -9.9 and 15.1 and 8.0 and 7.0

CYP1A1-2 (sense GGGUUUGACACAGUCACAATT; antisense UUGUGACUGUGUCAAACCCTT; chemistry not given here)
Relative mRNA content of the targeted gene after siRNA knockdown (Fig5D) [12]: 0.00

ELAC2-2 (sense GCAGAGGGAUGCCAUUAUUTT; antisense AAUAAUGGCAUCCCUCUGCTT; chemistry not given here)
Relative mRNA content of the targeted gene after siRNA knockdown (Fig5D) [12]: 0.20 and 0.16 and 0.32

IDH3G-1 (sense GCAAGAGUAUCGCCAAUAATT; antisense UUAUUGGCGAUACUCUUGCTT; chemistry not given here)
Relative mRNA content of the targeted gene after siRNA knockdown (Fig5D) [12]: 0.00

IDH3G-2 (sense GCACGUGAGUUCCAAUGCUTT; antisense AGCAUUGGAACUCACGUGCTT; chemistry not given here)
Relative mRNA content of the targeted gene after siRNA knockdown (Fig5D) [12]: 0.00

UBP1-1 (sense GCACCCACCCUUUCAGUAUTT; antisense AUACUGAAAGGGUGGGUGCTT; chemistry not given here)
Relative mRNA content of the targeted gene after siRNA knockdown (Fig5D) [12]: 0.42 and 0.21 and 0.33
